Data on 31 compounds can be found in US8409552B2, “Anthranillic acid amides and derivatives thereof as cosmetic and pharmaceutical active compounds” (Symrise AG, priority 2002, dated 2013).

Like-named read-outs stand apart in the source and are kept apart here.

Assay [1] deals with Mast cells from the peritoneal tissue of rats. Kind of assay: Inhibition of substance P-induced release of histamine from mast cells. The assay is classed as cell-based, rat. The note with it: for inhibition at 0.5 µg/mL / inhibition at 5 µg/mL / inhibition at 50 µg/mL: Rattus norvegicus, Mast cell, 2 min, substance P 10 μM, 37° C., based on histamine content of cells stimulated with substance P; for inhibition at 0.5 µg/mL: 0.5 ppm synthetic substance; for inhibition at 5 µg/mL: 5 ppm synthetic substance; for inhibition at 50 µg/mL: 50 ppm synthetic substance; for IC50: positive control, read-out: concentration for 50% inhibition of substance P-induced release of histamine; for activity in inhibiting substance P-induced histamine release, in words: structure/activity considerations, Tables 1a/1b. The protocol: Stock solutions: avenanthramides 2 to 19 (structural formulae: see Table 1a) and dianthramides 20-29 (structural formulae: see Table 1b); concentration: 1% in ethanol; storage before use at 4° C.) Mast cells from the peritoneal tissue of rats were isolated by centrifuging on metrizamide and stimulated with substance P (10 μM). […] The synthetically prepared avenanthramides and dianthramides of the Formulae 2 to 29 (cf. […] Test system: The final test solutions were incubated for 2 minutes in the presence of substance P and of the reference substance (CaCl2) or of the particular sample to be tested (incubation temperature: 37° C.). Cells that had been incubated in the absence of substance P and reference or sample substance served as blank. The reaction solutions were first freed from cell constituents by centrifuging. The histamine present in the supernatant liquor was then converted to a derivative with OPT and the fluorescence of the solutions was determined photometrically (fluorometer Cytofluor 2350). […] The values for the various avenanthramides are given in Table 2 as % inhibition based on the histamine content of cells stimulated with substance P without the addition of inhibitors.

The next assay relates to rat mast cells. The note with it: oral application, dose of 200 mg/kg; cited from earlier work.
A further assay deals with mast cells. The settings on record: at 10^−3 M; cited from earlier work.

`O=C(CCc1ccc(O)cc1)Nc1ccc(O)cc1C(=O)O` [compound 5]: in assay [1], the inhibition at 0.5 µg/mL came to 7%, the inhibition at 5 µg/mL was 17% and the inhibition at 50 µg/mL was determined as 47%.
Turning to `COC(=O)c1ccccc1NC(=O)CCc1ccc(OC)c(OC)c1` [compound 16], in assay [1], the inhibition at 0.5 µg/mL came to 26%, the inhibition at 5 µg/mL was found to be 25% and the inhibition at 50 µg/mL was determined as 7%.
Turning to `O=C(/C=C/c1ccc(O)cc1)Nc1cc(O)ccc1C(=O)O` [compound 6], in assay [1], the inhibition at 0.5 µg/mL is -9%, the inhibition at 5 µg/mL worked out at 1% and the inhibition at 50 µg/mL is 41%.
Consider `O=C(/C=C/c1ccc(O)cc1)Nc1ccccc1C(=O)O` [substance 10, N-(4-hydroxycinnamoyl)anthranilic Acid], for which the “inhibition of antigen-induced destruction of rat mast cells” value in the assay with rat mast cells is given as 36.7%.
For the compound `COc1ccc(/C=C/C(=O)Nc2ccc(O)cc2C(=O)O)cc1OC` [compound 13], in assay [1], the inhibition at 0.5 µg/mL came out at 17%, the inhibition at 5 µg/mL is 2% and the inhibition at 50 µg/mL worked out at 30%.
In the same order, the values of `O=C(/C=C/c1ccccc1)Nc1ccc(O)cc1C(=O)O` [compound 12] are -5%, 0% and 34%.
For `COc1ccc(/C=C/C(=O)Nc2ccccc2C(=O)O)cc1` [compound 14] the same measures were 21%, 30% and 24%.
As to `COc1cc(C(=O)Nc2ccccc2C(=O)O)ccc1O` [compound 25, 2-[(4-hydroxy-3-methoxybenzoyl)amino]-benzoic acid], in assay [1], the inhibition at 0.5 µg/mL came to 8%, the inhibition at 5 µg/mL stood at 42% and the inhibition at 50 µg/mL was 51%.
Turning to `[Ca+2].[Cl-].[Cl-]` [calcium chloride, reference compound], the IC50 in assay [1] (test series 3.1 (synthetic anthranilic acid amides)) was determined as 639 µM; in assay [1] (test series 3.2 (oat fraction vs reconstituted product)), 432 µM.
As for `O=C([O-])c1cc(=O)c2c(OCC(O)COc3cccc4oc(C(=O)[O-])cc(=O)c34)cccc2o1.[Na+].[Na+]` [DSCG, disodium cromoglycate], the “inhibition of substance P-induced histamine release” value with mast cells is 41%.
Turning to `COc1ccc(C(=O)Nc2ccccc2C(=O)O)cc1O` [compound 23, 2-[(3-hydroxy-4-methoxybenzoyl)amino]-benzoic acid], in assay [1], the inhibition at 0.5 µg/mL was found to be 9%, the inhibition at 5 µg/mL was 29% and the inhibition at 50 µg/mL came out at 69%.
As for `COc1ccc(/C=C/C(=O)Nc2ccccc2C(=O)O)cc1OC` [compound 15], in assay [1], the inhibition at 0.5 µg/mL was 23% and the inhibition at 5 µg/mL came to 22%.
Consider `COc1ccc(CCC(=O)Nc2ccc(O)cc2C(=O)O)cc1OC` [compound 11], for which, in assay [1], the inhibition at 0.5 µg/mL was -6%, the inhibition at 5 µg/mL is 11% and the inhibition at 50 µg/mL was 36%.
In the same order, the values of `O=C(/C=C/c1ccc(O)cc1)Nc1ccc(O)cc1C(=O)O` [compound 7] are 27%, 26% and 40%.
With `O=C(Nc1ccccc1C(=O)O)c1ccccc1O` [compound 29], in assay [1], the inhibition at 0.5 µg/mL is -1%, the inhibition at 5 µg/mL was 15% and the inhibition at 50 µg/mL came to 23%.
In the same order, the values of `O=C(CCc1ccc(O)cc1)Nc1ccccc1C(=O)O` [compound 8] are 13%, 26% and 40%.
On to `O=C(Nc1ccc(O)cc1C(=O)O)c1ccc(O)cc1` [compound 21], for which, in assay [1], the inhibition at 0.5 µg/mL was -15%, the inhibition at 5 µg/mL was found to be 48% and the inhibition at 50 µg/mL was found to be 76%.
On to `O=C(/C=C/c1ccc(O)cc1)Nc1ccccc1C(=O)O` [compound 10], for which, in assay [1], the inhibition at 0.5 µg/mL is -10%, the inhibition at 5 µg/mL amounted to 8% and the inhibition at 50 µg/mL is 37%.
For `O=C(Nc1ccccc1C(=O)O)c1cc(O)c(O)c(O)c1` [compound 22, 2-[(3,4,5-trihydroxy-benzoyl)amino]benzoic acid] the same measures were 39%, 72% and 71%.
In the same order, the values of `O=C(Nc1ccccc1C(=O)O)c1ccc(O)cc1` [compound 24, 2-[(4-hydroxy-benzoyl)amino]benzoic acid] are 7%, 19% and 55%.
On to `O=C(/C=C/c1ccccc1)Nc1ccccc1C(=O)O` [compound 17], for which, in assay [1], the inhibition at 0.5 µg/mL stood at 4%, the inhibition at 5 µg/mL was 7% and the inhibition at 50 µg/mL was 6%.
As to `O=C(/C=C/c1ccc(O)c(O)c1)Nc1ccc(O)cc1C(=O)O` [compound 3], in assay [1], the inhibition at 0.5 µg/mL was found to be 11%; the inhibition at 5 µg/mL was 62%; the inhibition at 50 µg/mL stood at 106%; the “activity in inhibiting substance P-induced histamine release, in words” value was “complete inhibition of the histamine release”.
As for `COc1cc(/C=C/C(=O)Nc2ccc(O)cc2C(=O)O)ccc1O` [compound 4], in assay [1], the inhibition at 0.5 µg/mL turned out to be 3%, the inhibition at 5 µg/mL came out at 49% and the inhibition at 50 µg/mL was found to be 59%.
Take `O=C(/C=C/c1ccc(O)c(O)c1)Nc1ccccc1C(=O)O` [compound 2]: in assay [1], the inhibition at 0.5 µg/mL is 7%; the inhibition at 5 µg/mL was found to be 80%; the inhibition at 50 µg/mL came out at 108%; the “activity in inhibiting substance P-induced histamine release, in words” value was “complete inhibition of the histamine release”.
Take `COc1cc(/C=C/C(=O)Nc2ccccc2C(=O)O)ccc1O` [compound 9]: in assay [1], the inhibition at 0.5 µg/mL is 11%, the inhibition at 5 µg/mL amounted to 19% and the inhibition at 50 µg/mL was 39%.
For `O=C(Nc1ccccc1C(=O)O)c1cccc(O)c1` [compound 28, 2-[(3-hydroxy-benzoyl)amino]benzoic acid] the same measures were 12%, 25% and 35%.
In the same order, the values of `O=C(Nc1ccccc1C(=O)O)c1ccc(O)cc1O` [compound 26] are -13%, 22% and 48%.
For `O=C(Nc1ccccc1C(=O)O)c1ccccc1` [compound 27], in assay [1], the inhibition at 0.5 µg/mL came to 27%, the inhibition at 5 µg/mL stood at 28% and the inhibition at 50 µg/mL turned out to be 39%.
Consider `O=C(Nc1ccccc1C(=O)O)c1ccc(O)c(O)c1` [compound 20, 2-[(3,4-dihydroxybenzoyl)amino]benzoic acid], for which, in assay [1], the inhibition at 0.5 µg/mL stood at 14%; the inhibition at 5 µg/mL was 76%; the inhibition at 50 µg/mL was 110%; the “activity in inhibiting substance P-induced histamine release, in words” value is reported as “greatest activity”.
Take `COC(=O)c1ccccc1NC(=O)/C=C/c1ccc(OC)c(OC)c1` [compound 18]: in assay [1], the inhibition at 0.5 µg/mL was 5%, the inhibition at 5 µg/mL was -3% and the inhibition at 50 µg/mL worked out at 6%.
For the compound `COc1ccc(CCC(=O)Nc2ccccc2C(=O)O)cc1OC` [compound 19], in assay [1], the inhibition at 0.5 µg/mL was -15%, the inhibition at 5 µg/mL is -22% and the inhibition at 50 µg/mL is -4%.
